Source: ChEMBL document CHEMBL1944547, “Ethionamide boosters. 2. Combining bioisosteric replacement and structure-based drug design to solve pharmacokinetic issues in a series of potent 1,2,4-oxadiazole EthR inhibitors” (J Med Chem, 2012)
≈ marks a conversion by molar mass, not a printed value.

Tests used:
in vitro = conditions: CD-1, mouse, liver microsomes
Description: Half life in CD-1 mouse liver microsomes at 1 uM by LC-MS/MS analysis

[1] = Solubility of the compound in PBS buffer at pH 7.4 after 24 hrs by LC-MS analysis; type: physicochemical

O=C(CCC(F)(F)F)N1CCC(c2nc(-c3nccs3)no2)CC1
half-life at 1 µM (in vitro): 34 min | solubility at 24 h [1]: 300 µg/mL (≈ 832 µM)

O=C(CCC(F)(F)F)N1CCC(c2nc(-c3cccs3)no2)CC1
half-life at 1 µM (in vitro): 5 min

O=C(CCC(F)(F)F)N1CCC(c2nc(-c3ccccc3)no2)CC1
solubility at 24 h [1]: 40 µg/mL (≈ 113 µM)

O=C(CCCC(F)(F)F)N1CCC(c2nc(-c3nccs3)no2)CC1
half-life at 1 µM (in vitro): 81 min

COc1ccc2nc(-c3noc(C4CCN(C(=O)CCC(F)(F)F)CC4)n3)sc2c1
half-life at 1 µM (in vitro): 6 min | solubility at 24 h [1]: 6 µg/mL (≈ 13.6 µM)
